{"source": "EPA's ToxValDB 9.5 (doi:10.2903/j.efsa.2010.1692)", "key": {"[1]": {"tested_on": "Anas platyrhynchos", "conditions": "short-term; oral; feed; mortality"}, "[2]": {"tested_on": "Apis mellifera", "conditions": "acute; duration: 48 hours; oral; unspecified; mortality"}, "[3]": {"tested_on": "Tagia sp.", "conditions": "acute; mortality"}, "[4]": {"tested_on": "Lymnaea stagnalis", "conditions": "chronic/long-term; duration: 41 days"}, "[5]": {"tested_on": "Pimephales promelas", "conditions": "chronic/long-term; duration: 32 days"}, "[6]": {"tested_on": "Coturnix coturnix"}, "[7]": {"tested_on": "Rattus norvegicus"}, "[8]": {"tested_on": "Oncorhynchus mykiss", "conditions": "acute; duration: 96 hours; mortality"}, "[9]": {"tested_on": "Aphidius rhopalosiphi", "conditions": "not reported; reproduction"}, "[10]": {"tested_on": "Chrysoperla externa", "conditions": "not reported; mortality"}, "[11]": {"tested_on": "Lepomis macrochirus", "conditions": "acute; duration: 96 hours; mortality"}}}
{"smiles": "COc1cc(OC)nc(Oc2cccc(Oc3nc(OC)cc(OC)n3)c2C(=O)[O-])n1.[Na+]", "note": "[Bispyribac-sodium]", "values": [{"measurement": "LC50", "setting": "[1]", "result": "> 2060", "unit": "mg/kg"}, {"measurement": "LD50", "setting": "[2]", "result": "> 141", "unit": "µg/piece"}, {"measurement": "LC50", "setting": "[3]", "result": "> 957", "unit": "mg/kg"}, {"measurement": "NOEC", "setting": "[4]", "result": "≥ 10", "unit": "mg/L"}, {"measurement": "NOEC", "setting": "[5]", "result": "≥ 10", "unit": "mg/L"}, {"measurement": "LC50", "setting": "[6]; acute, oral, diet, mortality", "result": "> 2080", "unit": "mg/kg"}, {"measurement": "LD50", "setting": "[6]; acute, oral, mortality", "result": "> 2250", "unit": "mg/kg"}, {"measurement": "NOEC", "setting": "[6]; reproduction developmental, reproduction", "result": 116, "unit": "mg/kg-day"}, {"measurement": "LD50", "setting": "[7]; acute, oral, mortality", "result": 2640, "unit": "mg/kg"}, {"measurement": "NOAEL", "setting": "[7]; chronic, duration: 2 years, hematological", "result": 1.1, "unit": "mg/kg-day"}, {"measurement": "NOAEC", "setting": "[7]; reproduction developmental, body weight", "result": 50, "unit": "mg/kg-day"}, {"measurement": "NOAEL", "setting": "[7]; reproduction developmental, histopathology: nonneoplastic", "result": 1, "unit": "mg/kg-day"}, {"measurement": "NOAEL", "setting": "[7]; subchronic, duration: 90 days, oral, clinical chemistry", "result": 7.2, "unit": "mg/kg-day"}, {"measurement": "LC50", "setting": "[8]", "result": "> 95", "unit": "µg/mL"}, {"measurement": "LEL", "setting": "[9]", "result": 3, "unit": "g/ha"}, {"measurement": "LEL", "setting": "[10]", "result": 30, "unit": "g/ha"}, {"measurement": "LC50", "setting": "[11]", "result": "> 95", "unit": "µg/mL"}]}
